# Where “and” joins values, the source holds several entries; their conditions need not be identical. Equal values may be shown once.
# Assays:
# ASH1L = target: T1, ASH1L (Homo sapiens, UniProt Q9NR48); assay: Radioisotope-based methyltransferase assay (selectivity); format: biochemical; settings: IC50, ASH1L
# T1 construct: purchased Reaction Biology
# PRDM9 = target: T2, PRDM9 (Homo sapiens, UniProt Q9NQV7); assay: as above; format: biochemical
# T2 construct: purchased Reaction Biology
# NSD3 = target: T3, NSD3 (Homo sapiens, UniProt Q9BZ95); assay: as above; format: biochemical
# T3 construct: purchased Reaction Biology
# T3 sequence (Q9BZ95 1-1437): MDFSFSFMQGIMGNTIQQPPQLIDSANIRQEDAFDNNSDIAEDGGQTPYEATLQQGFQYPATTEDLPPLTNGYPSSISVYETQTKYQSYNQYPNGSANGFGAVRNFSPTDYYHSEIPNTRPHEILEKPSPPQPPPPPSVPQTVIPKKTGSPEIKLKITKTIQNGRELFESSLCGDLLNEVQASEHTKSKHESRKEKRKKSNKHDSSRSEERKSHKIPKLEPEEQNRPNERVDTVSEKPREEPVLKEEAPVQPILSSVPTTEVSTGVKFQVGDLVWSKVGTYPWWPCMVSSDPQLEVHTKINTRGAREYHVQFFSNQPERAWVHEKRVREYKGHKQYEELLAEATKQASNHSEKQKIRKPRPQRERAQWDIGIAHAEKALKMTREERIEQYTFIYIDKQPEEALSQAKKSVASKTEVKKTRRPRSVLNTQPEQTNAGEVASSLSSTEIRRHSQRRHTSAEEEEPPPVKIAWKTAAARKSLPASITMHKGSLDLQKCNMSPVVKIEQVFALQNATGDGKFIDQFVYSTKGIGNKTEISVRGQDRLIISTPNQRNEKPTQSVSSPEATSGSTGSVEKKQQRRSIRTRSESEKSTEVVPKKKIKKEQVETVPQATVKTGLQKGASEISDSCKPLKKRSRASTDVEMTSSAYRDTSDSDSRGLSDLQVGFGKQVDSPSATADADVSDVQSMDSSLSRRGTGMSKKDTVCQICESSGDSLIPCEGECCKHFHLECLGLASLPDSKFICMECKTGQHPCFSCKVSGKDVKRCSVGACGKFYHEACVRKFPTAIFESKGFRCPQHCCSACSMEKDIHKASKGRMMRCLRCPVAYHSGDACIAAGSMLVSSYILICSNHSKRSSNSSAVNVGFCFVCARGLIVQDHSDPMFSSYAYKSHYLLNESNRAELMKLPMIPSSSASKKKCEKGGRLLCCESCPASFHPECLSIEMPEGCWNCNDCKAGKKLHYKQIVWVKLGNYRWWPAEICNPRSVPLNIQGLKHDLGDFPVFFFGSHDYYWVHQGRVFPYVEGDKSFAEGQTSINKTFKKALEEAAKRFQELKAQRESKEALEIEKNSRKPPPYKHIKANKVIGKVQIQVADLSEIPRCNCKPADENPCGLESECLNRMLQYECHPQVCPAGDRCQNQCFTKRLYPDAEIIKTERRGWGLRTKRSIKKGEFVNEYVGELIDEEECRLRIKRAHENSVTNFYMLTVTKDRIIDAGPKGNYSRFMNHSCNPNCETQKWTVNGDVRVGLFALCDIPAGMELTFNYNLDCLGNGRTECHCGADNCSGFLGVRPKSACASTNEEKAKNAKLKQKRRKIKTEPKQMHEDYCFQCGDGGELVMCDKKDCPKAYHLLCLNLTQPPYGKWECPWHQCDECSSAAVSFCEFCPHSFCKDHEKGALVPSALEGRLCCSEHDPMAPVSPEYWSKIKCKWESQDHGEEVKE
# [1] = system: β- and γ-globin genes in HUDEP-2 cells; assay: RT-qPCR of β- and γ-globin in HUDEP-2 cells; format: cell-based, human; settings: for β-globin expression in HUDEP-2 cells / γ-globin expression in HUDEP-2 cells: relative to DMSO = 1, replicate values
# Description: (§1) Total cellular RNA was prepared using the Tissue Total RNA Mini Kit (FAVORGEN), and cDNA was synthesized using ReverTra Ace Master Mix (TOYOBO). Expression of target genes was analyzed using THUNDERBIRD SYBR qPCR Mix (TOYOBO) on a CFX Connect Real Time System (Bio-Rad). The qPCR data were acquired on CFX Maestro (Bio-Rad). Primers are listed in Supplementary Table 10. GAPDH was used as a reference. Primers were purchased from INTEGRATED DNA TECHNOLOGIES or FASMAC.
# [2] = system: BGLT3 RNA in HUDEP-2 cells; assay: RT-qPCR of BGLT3 in HUDEP-2 cells; format: cell-based, human; settings: for BGLT3 expression in HUDEP-2 cells: relative to DMSO = 1, replicate values
# Description: as §1
# H3K9me2 in HUDEP-2 cells = assay: Western blotting of H3K9me2 in HUDEP-2 cells; format: cell-based, human; settings: HUDEP-2, 4 days
# Description: Preparation of cell lysates and western blotting were performed as described previously. Protein from cells lysates in lysis buffer (50 mM Tris-HCl (pH 7.5), 150 mM NaCl, 5 mM EDTA, 0.1% NP-40, 1 mM dithiothreitol) were separated by sodium dodecyl sulfate–polyacrylamide gel electrophoresis (SDS-PAGE) and transferred to a polyvinylidene difluoride (PVDF) membrane (Millipore) by electroblotting. The membranes incubated with primary antibodies overnight at 4 °C and secondary antibodies for 1 h at room temperature. The immune complexes were detected with the Immobilon Western Chemiluminescent HRP Substrate (Millipore). Luminescence was analyzed on a FUSION SOLO S (Vilber). Western blot bands were visualized using Evolution Capt software (M&S Instruments Inc.). Primary antibodies used were anti-G9a (1:1000, CST, #3306), anti–α-tubulin (1:5000, Abcam, ab18251), anti-H3K9me2 (1:3000, Abcam, ab1220), anti-H3 (1:5000, Abcam, ab1791), anti-H3K27me3 (1:3000, Sigma, 07-449), anti-GLP (1:1000, CST, #35005), anti-FLAG (100 ng/ml, Fujifilm, 01422383), anti-His (1:5000, MBL, PM032), anti-BCL11A (1:1000, abcam, ab19487), anti-ZBTB7A (1:1000, CST, #50565), anti-CHD3 (1:1000, Novus Biologicals, NB100-60412), and anti-CHD4 (1:1000, abcam, ab240640). Uncropped scans of all of the blots are available in Source Data file.
# HUDEP-2 cells = assay: Cell viability assay (WST-8), HUDEP-2; format: cell-based, human
# Description: A WST-8 (2-(2-methoxy-4-nitrophenyl)-3-(4-nitrophenyl)-5-(2,4-disulfophenyl)-2H-tetrazolium) assay using a Cell Counting Kit-8 (DOJINDO) was performed to measure cell viability using an EnSpire microplate reader (PerkinElmer).
# T2 sequence (Q9NQV7 whole entry): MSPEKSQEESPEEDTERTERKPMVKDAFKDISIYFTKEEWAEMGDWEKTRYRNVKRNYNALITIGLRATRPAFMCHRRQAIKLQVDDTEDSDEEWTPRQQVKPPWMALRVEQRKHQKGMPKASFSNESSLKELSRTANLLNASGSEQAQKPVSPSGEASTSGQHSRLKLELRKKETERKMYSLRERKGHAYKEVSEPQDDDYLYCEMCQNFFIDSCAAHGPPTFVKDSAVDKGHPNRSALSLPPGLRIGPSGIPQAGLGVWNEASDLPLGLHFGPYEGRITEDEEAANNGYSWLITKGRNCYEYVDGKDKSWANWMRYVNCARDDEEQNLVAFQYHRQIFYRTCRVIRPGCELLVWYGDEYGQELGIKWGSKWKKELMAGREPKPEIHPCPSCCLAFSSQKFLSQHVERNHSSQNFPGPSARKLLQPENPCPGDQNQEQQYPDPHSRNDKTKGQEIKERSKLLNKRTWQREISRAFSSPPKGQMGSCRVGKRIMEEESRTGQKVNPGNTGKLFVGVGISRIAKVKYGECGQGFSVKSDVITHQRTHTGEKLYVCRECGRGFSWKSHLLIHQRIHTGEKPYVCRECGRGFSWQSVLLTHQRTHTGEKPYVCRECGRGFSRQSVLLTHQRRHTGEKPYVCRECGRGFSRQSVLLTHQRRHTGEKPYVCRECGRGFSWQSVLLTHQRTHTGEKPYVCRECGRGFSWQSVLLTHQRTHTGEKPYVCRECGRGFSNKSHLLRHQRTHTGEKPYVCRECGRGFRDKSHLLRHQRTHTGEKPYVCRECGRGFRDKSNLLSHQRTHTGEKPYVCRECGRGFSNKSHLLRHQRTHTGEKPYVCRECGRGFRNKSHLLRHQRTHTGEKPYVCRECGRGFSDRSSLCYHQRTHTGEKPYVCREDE
smiles,measurement,setting,value
"CN1C(=O)[C@@]23C[C@]4([C@]56C[C@@]78SS[C@@](CO)(C(=O)N7[C@H]5Nc5ccccc56)N(C)C8=O)c5ccccc5N[C@@H]4N2C(=O)[C@]1(CO)SS3 [Chaetocin, reference compound]",IC50,ASH1L; 1 μM SAM,93 nM
same,IC50,ASH1L; RK-701 in duplicate,92.8 nM
same,IC50,"PRDM9; IC50, PRDM9, 1 μM SAM",13.4 µM
same,IC50,"PRDM9; IC50, PRDM9, RK-701 in duplicate",13.4 µM
same,IC50,"NSD3; IC50, NSD3, 1 μM SAM",150 nM
same,IC50,"NSD3; IC50, NSD3, RK-701 in duplicate",150 nM
COc1cc2c(NC3CCN(C)CC3)cc(-c3ccc(C)o3)nc2cc1OCCCN1CCCC1 [CM-272],β-globin expression in HUDEP-2 cells,[1]; 0.01 μM,1.0071 and 1.036 and 1.465
same,γ-globin expression in HUDEP-2 cells,[1]; 0.01 μM,1.193 and 1.0465 and 1.534
same,β-globin expression in HUDEP-2 cells,[1]; 0.03 μM,0.9553 and 1.237 and 1.08
same,γ-globin expression in HUDEP-2 cells,[1]; 0.03 μM,1.464 and 1.528 and 1.418
same,β-globin expression in HUDEP-2 cells,[1]; 0.1 μM,1.5931 and 1.663 and 1.768
same,γ-globin expression in HUDEP-2 cells,[1]; 0.1 μM,5.304 and 3.7722 and 4.868
same,β-globin expression in HUDEP-2 cells,[1]; 0.3 μM,1.078 and 1.725 and 1.22
same,γ-globin expression in HUDEP-2 cells,[1]; 0.3 μM,5.583 and 7.681 and 5.641
same,β-globin expression in HUDEP-2 cells,[1]; 1 μM,1.093 and 1.321 and 1.148
same,γ-globin expression in HUDEP-2 cells,[1]; 1 μM,3.245 and 3.178 and 3.329
same,γ-globin mRNA level,[1]; HUDEP-2,induced the expression of both BGLT3 and γ-globin
same,BGLT3 expression in HUDEP-2 cells,[2]; 0.01 μM,1.264 and 1.918 and 0.9309
same,BGLT3 expression in HUDEP-2 cells,[2]; 0.03 μM,0.9121 and 1.179 and 0.9824
same,BGLT3 expression in HUDEP-2 cells,[2]; 0.1 μM,0.6878 and 0.8395 and 1.055
same,BGLT3 expression in HUDEP-2 cells,[2]; 0.3 μM,4.167 and 3.251 and 2.85
same,BGLT3 expression in HUDEP-2 cells,[2]; 1 μM,9.88 and 9.285 and 7.11
same,BGLT3 expression,[2]; HUDEP-2,induced the expression of both BGLT3 and γ-globin
same,cellular H3K9me2 levels,H3K9me2 in HUDEP-2 cells,reduction of H3K9me2 levels
same,cell viability in HUDEP-2 cells,"HUDEP-2 cells; 0.123457 μM, control (0 μM) = 100",108.704 and 95.321 and 98.9654
same,cytotoxic effect on viability,"HUDEP-2 cells; HUDEP-2, 3 days",severe cell toxicity

# Reference: publication PMC9837035 (Nature Communications, 2023)
